From patent US20080009418A1, “Selective Inhibitors” (Alchemia LTD., priority 2004, published 2008)

Assays:
[1] = biological target: T1, Human melanocortin (MC5) (Homo sapiens, UniProt P33032); test: Radioligand binding, human melanocortin MC5 membranes, FlashPlate, [125I]-NDP-αMSH; settings: compound at 10 μM, [125I]-NDP-αMSH
T1 construct: purchased Perkin Elmer Biosignal
Procedure, shortened: (§1)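 Cloned human receptor membranes were coated onto FlashPlate wells and incubated with radioligand and compound (added from a 0.5 mM DMSO daughter plate) for 1 hour at room temperature in the dark. Scintillation counting gave percent inhibition, with DMSO defining total and reference ligand defining non-specific binding.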

[2] = biological target: T2, Human κ-Opioid (KOP) (Homo sapiens, UniProt P41145); test: Radioligand binding, human κ-opioid (KOP) membranes, filtration, [3H]-Diprenorphine; settings: compound at 10 μM, [3H]-Diprenorphine
T2 construct: purchased Perkin Elmer Biosignal
T2 sequence (P41145 whole entry): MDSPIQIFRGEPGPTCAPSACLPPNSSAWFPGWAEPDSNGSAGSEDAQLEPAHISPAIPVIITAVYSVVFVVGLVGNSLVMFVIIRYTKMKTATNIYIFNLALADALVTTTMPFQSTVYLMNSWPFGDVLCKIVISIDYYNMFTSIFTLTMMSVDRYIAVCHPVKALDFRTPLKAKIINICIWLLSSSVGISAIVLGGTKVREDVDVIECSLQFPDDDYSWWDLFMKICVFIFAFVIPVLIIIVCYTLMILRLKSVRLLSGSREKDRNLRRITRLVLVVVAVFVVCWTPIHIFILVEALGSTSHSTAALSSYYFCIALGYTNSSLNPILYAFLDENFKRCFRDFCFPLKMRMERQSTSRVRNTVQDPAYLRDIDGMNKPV
Procedure, shortened: (§2)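 Filtration binding on cloned human receptor membranes (1 Unit/well), [125I]-Substance P for NK1 and [3H]-Diprenorphine for KOP, 1 h at room temperature. Filters PEI-presoaked, washed with cold 50 mM Tris-HCl pH 7.4, counted by scintillation; percent inhibition calculated, reference ligand defining non-specific binding.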

[3] = biological target: T3, Human opioid (ORL1) (Homo sapiens, UniProt P41146); test: Radioligand binding, human opioid ORL1 membranes, FlashPlate, [125I]-Nociceptin; settings: compound at 10 μM, [125I]-Nociceptin
T3 construct: purchased Perkin Elmer Biosignal
T3 sequence (P41146 whole entry): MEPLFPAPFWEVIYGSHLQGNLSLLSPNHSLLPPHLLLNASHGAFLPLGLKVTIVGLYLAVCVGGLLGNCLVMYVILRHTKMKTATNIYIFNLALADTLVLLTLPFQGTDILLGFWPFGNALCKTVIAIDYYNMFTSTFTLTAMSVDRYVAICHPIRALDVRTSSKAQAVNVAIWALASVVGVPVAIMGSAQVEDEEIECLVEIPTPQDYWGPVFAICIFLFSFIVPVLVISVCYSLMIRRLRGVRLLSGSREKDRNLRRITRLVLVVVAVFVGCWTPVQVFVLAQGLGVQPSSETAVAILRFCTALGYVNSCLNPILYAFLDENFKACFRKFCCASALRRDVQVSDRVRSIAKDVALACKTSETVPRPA
Procedure, shortened: as §1

[4] = biological target: T4, Mouse urotensin (mUR2) (Mus musculus, UniProt Q8VIH9); test: Radioligand binding, mouse urotensin mUR2 membranes, FlashPlate, [125I]-Urotensin II; settings: compound at 10 μM, [125I]-Urotensin II
T4 construct: purchased Perkin Elmer Biosignal
T4 sequence (Q8VIH9 1-385): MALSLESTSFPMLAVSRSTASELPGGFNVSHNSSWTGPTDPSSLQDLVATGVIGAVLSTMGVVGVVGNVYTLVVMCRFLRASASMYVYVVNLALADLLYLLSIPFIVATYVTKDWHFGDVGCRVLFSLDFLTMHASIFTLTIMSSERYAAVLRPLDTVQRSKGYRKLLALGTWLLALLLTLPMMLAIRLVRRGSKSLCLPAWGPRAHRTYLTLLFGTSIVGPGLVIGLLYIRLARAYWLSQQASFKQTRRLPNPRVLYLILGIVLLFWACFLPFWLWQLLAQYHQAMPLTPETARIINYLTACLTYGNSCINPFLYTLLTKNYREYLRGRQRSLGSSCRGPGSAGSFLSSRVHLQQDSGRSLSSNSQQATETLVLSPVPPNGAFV
Procedure, shortened: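 Cloned mouse urotensin (mUR2) receptor membranes from Perkin Elmer Biosignal were immobilized in FlashPlate microplates using a proprietary coating. Each well got 19.5 μl buffer, then 0.5 μl of DMSO, reference ligand, or compound. Adding 5 μl of [125I]-Urotensin II, diluted to 5× final concentration in binding buffer, started binding. Plates were sealed with TopSeal-A and incubated 1 hour at room temperature in the dark. Wells were counted for 30 seconds each on a TopCount after a 60-second delay, and percentage inhibition was calculated.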

[5] = biological target: T5, Human Melanocortin (MC4) (Homo sapiens, UniProt P32245); test: Radioligand binding, human melanocortin MC4 membranes, FlashPlate, [125I]-NDP-αMSH; settings: compound at 10 μM, [125I]-NDP-αMSH
T5 construct: purchased Perkin Elmer Biosignal
T5 sequence (P32245 whole entry): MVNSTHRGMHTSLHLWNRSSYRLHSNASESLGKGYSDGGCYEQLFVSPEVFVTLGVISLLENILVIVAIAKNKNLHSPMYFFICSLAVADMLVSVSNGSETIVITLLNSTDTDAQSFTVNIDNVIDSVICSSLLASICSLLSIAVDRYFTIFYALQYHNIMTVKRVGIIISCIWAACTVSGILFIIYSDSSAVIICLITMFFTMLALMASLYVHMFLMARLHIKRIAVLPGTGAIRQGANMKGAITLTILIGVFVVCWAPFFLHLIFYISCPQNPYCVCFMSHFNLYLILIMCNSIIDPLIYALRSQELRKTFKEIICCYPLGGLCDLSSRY
Procedure, shortened: as §1

[6] = biological target: T6, Human melanin-concentrating hormone (MCH1) (Homo sapiens, UniProt Q99705); test: Radioligand binding, human melanin-concentrating hormone MCH1 membranes, FlashPlate, [125I]-S36057; settings: compound at 10 μM
T6 construct: purchased Perkin Elmer Biosignal
T6 sequence (Q99705 whole entry): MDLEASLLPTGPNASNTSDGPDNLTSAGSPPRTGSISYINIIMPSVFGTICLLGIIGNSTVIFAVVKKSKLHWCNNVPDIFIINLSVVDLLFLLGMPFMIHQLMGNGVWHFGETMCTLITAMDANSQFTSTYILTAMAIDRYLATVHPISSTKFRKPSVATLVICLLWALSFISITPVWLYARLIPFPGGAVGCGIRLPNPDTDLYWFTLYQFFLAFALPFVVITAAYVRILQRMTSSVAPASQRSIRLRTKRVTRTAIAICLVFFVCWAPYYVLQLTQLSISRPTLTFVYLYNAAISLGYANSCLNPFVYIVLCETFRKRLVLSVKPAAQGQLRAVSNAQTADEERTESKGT
Procedure, shortened: as §1

[7] = biological target: T7, Human neuropeptide Y (NPY-Y1) (Homo sapiens, UniProt P25929); test: Radioligand binding, human neuropeptide Y NPY-Y1 membranes, FlashPlate, [125I]-PYY; settings: compound at 10 μM, [125I]-PYY
T7 construct: purchased Perkin Elmer Biosignal
T7 sequence (P25929 1-384): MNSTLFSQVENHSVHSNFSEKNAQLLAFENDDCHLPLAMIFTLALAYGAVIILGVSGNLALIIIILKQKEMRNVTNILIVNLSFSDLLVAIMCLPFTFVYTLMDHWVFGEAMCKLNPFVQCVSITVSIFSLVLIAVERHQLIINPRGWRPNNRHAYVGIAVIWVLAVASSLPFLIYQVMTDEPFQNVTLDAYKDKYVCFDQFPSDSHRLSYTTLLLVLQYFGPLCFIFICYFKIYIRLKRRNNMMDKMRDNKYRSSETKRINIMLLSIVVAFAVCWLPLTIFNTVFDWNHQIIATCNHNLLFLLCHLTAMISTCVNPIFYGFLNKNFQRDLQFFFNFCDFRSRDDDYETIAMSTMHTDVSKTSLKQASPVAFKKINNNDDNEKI
Procedure, shortened: as §1

[8] = biological target: T8, Human μ-opioid (MOP) (Homo sapiens, UniProt P35372); test: Radioligand binding, human μ-opioid (MOP) membranes, FlashPlate, [3H]-Naloxone; settings: compound at 10 μM, [3H]-Naloxone
T8 construct: purchased Perkin Elmer Biosignal
T8 sequence (P35372 whole entry): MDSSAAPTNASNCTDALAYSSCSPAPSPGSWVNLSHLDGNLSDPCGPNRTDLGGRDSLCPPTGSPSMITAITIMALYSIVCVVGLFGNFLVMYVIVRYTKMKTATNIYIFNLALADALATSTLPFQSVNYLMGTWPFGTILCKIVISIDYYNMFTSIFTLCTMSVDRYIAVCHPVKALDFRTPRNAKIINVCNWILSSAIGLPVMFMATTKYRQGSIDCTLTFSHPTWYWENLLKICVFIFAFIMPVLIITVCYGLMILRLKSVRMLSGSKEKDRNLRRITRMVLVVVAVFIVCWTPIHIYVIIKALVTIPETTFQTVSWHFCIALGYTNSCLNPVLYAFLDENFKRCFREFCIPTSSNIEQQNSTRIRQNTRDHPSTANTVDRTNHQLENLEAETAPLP
Procedure, shortened: as §1

[9] = biological target: T9, Human δ-opioid (DOP) (Homo sapiens, UniProt P41143); test: Radioligand binding, human δ-opioid (DOP) membranes, FlashPlate, [3H]-Bremazocine; settings: compound at 10 μM, [3H]-Bremazocine
T9 construct: purchased Perkin Elmer Biosignal
T9 sequence (P41143 whole entry): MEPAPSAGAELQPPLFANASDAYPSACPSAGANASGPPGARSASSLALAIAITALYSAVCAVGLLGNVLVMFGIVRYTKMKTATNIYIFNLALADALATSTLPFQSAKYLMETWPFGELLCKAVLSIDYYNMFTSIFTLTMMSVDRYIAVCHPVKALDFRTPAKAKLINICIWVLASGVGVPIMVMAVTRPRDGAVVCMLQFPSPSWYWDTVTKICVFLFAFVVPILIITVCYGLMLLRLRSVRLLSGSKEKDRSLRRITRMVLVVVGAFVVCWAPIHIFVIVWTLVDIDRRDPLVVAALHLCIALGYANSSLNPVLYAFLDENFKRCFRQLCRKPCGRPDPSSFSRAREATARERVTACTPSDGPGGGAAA
Procedure, shortened: as §1

[10] = biological target: T10, Human Melanocortin (MC3) (Homo sapiens, UniProt P41968); test: Radioligand binding, human melanocortin MC3 membranes, FlashPlate, [125I]-NDP-αMSH; settings: compound at 10 μM, [125I]-NDP-αMSH
T10 construct: purchased Perkin Elmer Biosignal
T10 sequence (P41968 whole entry): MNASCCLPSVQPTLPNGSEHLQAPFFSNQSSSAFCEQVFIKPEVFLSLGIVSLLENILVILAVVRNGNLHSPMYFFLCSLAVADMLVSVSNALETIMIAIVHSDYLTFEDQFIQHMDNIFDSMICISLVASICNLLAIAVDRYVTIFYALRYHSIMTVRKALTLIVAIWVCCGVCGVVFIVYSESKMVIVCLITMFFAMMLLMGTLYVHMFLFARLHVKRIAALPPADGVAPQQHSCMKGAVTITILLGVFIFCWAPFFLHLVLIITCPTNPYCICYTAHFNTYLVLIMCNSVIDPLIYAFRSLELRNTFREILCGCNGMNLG
Procedure, shortened: as §1

[11] = biological target: T11, Human neurokinin (NK1) (Homo sapiens, UniProt P25103); test: Radioligand binding, human neurokinin NK1 membranes, filtration, [125I]-Substance P; settings: compound at 10 μM, [125I]-Substance P
T11 construct: purchased Perkin Elmer Biosignal
T11 sequence (P25103 whole entry): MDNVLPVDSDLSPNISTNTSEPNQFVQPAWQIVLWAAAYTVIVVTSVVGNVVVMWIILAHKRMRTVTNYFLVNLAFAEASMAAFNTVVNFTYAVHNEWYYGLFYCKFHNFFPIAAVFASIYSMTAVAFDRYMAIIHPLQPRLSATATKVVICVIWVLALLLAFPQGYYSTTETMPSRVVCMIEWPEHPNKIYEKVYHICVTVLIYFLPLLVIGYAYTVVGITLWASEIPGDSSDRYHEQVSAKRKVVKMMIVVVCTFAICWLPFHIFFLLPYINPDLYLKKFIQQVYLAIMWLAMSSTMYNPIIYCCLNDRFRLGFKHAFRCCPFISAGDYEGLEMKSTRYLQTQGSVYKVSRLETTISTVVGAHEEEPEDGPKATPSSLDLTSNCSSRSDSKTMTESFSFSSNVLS
Procedure, shortened: as §2

[12] = [125I]-S36057, human MCH1 membranes

T1 sequence (P33032 whole entry): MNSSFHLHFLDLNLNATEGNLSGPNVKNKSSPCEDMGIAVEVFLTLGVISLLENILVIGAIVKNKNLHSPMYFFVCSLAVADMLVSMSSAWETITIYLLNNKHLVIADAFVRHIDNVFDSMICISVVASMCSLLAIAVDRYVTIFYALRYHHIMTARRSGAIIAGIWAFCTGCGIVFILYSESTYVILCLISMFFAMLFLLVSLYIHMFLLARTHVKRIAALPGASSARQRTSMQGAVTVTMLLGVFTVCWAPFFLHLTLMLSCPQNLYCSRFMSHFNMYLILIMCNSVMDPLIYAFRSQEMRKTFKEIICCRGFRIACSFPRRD

| Compound | A5: inhibition of radioligand binding ([1]; FlashPlate) | A2: inhibition of radioligand binding ([2]; filtration) | A10: inhibition of radioligand binding ([3]; FlashPlate) | A11: inhibition of radioligand binding ([4]; FlashPlate) | A4: inhibition of radioligand binding ([5]; FlashPlate) | A6: inhibition of radioligand binding ([6]; [125I]-S36057, FlashPlate) | A9: inhibition of radioligand binding ([7]; FlashPlate) | A7: inhibition of radioligand binding ([8]; FlashPlate) | A1: inhibition of radioligand binding ([9]; FlashPlate) | A3: inhibition of radioligand binding ([10]; FlashPlate) | A8: inhibition of radioligand binding ([11]; filtration) | A5: inhibition of radioligand binding ([1]; human MC5 membranes) | A2: inhibition of radioligand binding ([2]; human KOP membranes) | A10: inhibition of radioligand binding ([3]; human ORL1 membranes) | A11: inhibition of radioligand binding ([4]; mouse mUR2 membranes) | A4: inhibition of radioligand binding ([5]; human MC4 membranes) | A6: inhibition of radioligand binding [6, 12] | A9: inhibition of radioligand binding ([7]; human NPY-Y1 membranes) | A7: inhibition of radioligand binding ([8]; human MOP membranes) | A1: inhibition of radioligand binding ([9]; human DOP membranes) | other results |
| --- | --- | --- | --- | --- | --- | --- | --- | --- | --- | --- | --- | --- | --- | --- | --- | --- | --- | --- | --- | --- | --- |
| COCC1OC(OCc2ccc3ccccc3c2)C(NC(=O)CCCNC(=N)N)C(OCc2ccc(Cl)cc2)C1O (stereo not shown) [compound 240] | + (“+” indicates greater than 50% inhibition at 10 μM) | + (“+” indicates greater than 50% inhibition at 10 μM) | + (“+” indicates greater than 50% inhibition at 10 μM) | − (“−” indicates less than 50% inhibition at 10 μM) | + (“+” indicates greater than 50% inhibition at 10 μM) | + (“+” indicates greater than 50% inhibition at 10 μM) | − (“−” indicates less than 50% inhibition at 10 μM) | + (“+” indicates greater than 50% inhibition at 10 μM) | − (“−” indicates less than 50% inhibition at 10 μM) | + (“+” indicates greater than 50% inhibition at 10 μM) | + (“+” indicates greater than 50% inhibition at 10 μM) |  |  |  |  |  |  |  |  |  |  |
| N=C(N)NCCC(=O)NC1C(OCc2ccc(-c3ccccc3)cc2)OC(COCc2ccccc2)C(O)C1OCc1ccc(-c2ccccc2)cc1 (stereo not shown) [compound 415] |  |  |  |  |  |  |  |  |  |  |  | + (“+” indicates greater than 50% inhibition at 10 μM) | − (“−” indicates less than 50% inhibition at 10 μM) | − (“−” indicates less than 50% inhibition at 10 μM) | − (“−” indicates less than 50% inhibition at 10 μM) | + (“+” indicates greater than 50% inhibition at 10 μM) | + (“+” indicates greater than 50% inhibition at 10 μM) | − (“−” indicates less than 50% inhibition at 10 μM) | − (“−” indicates less than 50% inhibition at 10 μM) | − (“−” indicates less than 50% inhibition at 10 μM) | A3: inhibition of radioligand binding ([10]; human MC3 membranes): + (“+” indicates greater than 50% inhibition at 10 μM); A8: inhibition of radioligand binding ([11]; human NK1 membranes): + (“+” indicates greater than 50% inhibition at 10 μM) |
| CSC1O[C@H](COCc2ccc(-c3ccccc3)cc2)[C@@H](O)[C@@H](OCc2ccc(Cl)cc2)[C@H]1NC(=O)CCN (stereo partly shown) [compound 276] | − (“−” indicates less than 50% inhibition at 10 μM) | − (“−” indicates less than 50% inhibition at 10 μM) | − (“−” indicates less than 50% inhibition at 10 μM) | − (“−” indicates less than 50% inhibition at 10 μM) | − (“−” indicates less than 50% inhibition at 10 μM) | − (“−” indicates less than 50% inhibition at 10 μM) | − (“−” indicates less than 50% inhibition at 10 μM) | − (“−” indicates less than 50% inhibition at 10 μM) | − (“−” indicates less than 50% inhibition at 10 μM) | − (“−” indicates less than 50% inhibition at 10 μM) | + (“+” indicates greater than 50% inhibition at 10 μM) |  |  |  |  |  |  |  |  |  |  |
| N=C(N)NCCC(=O)NC1C(OCc2ccc(-c3ccccc3)cc2)OC(COCc2ccccc2)C(O)C1OCc1ccc(Cl)cc1 (stereo not shown) [compound 409] |  |  |  |  |  |  |  |  |  |  |  | + (“+” indicates greater than 50% inhibition at 10 μM) | − (“−” indicates less than 50% inhibition at 10 μM) | + (“+” indicates greater than 50% inhibition at 10 μM) | − (“−” indicates less than 50% inhibition at 10 μM) | + (“+” indicates greater than 50% inhibition at 10 μM) | + (“+” indicates greater than 50% inhibition at 10 μM) | − (“−” indicates less than 50% inhibition at 10 μM) | − (“−” indicates less than 50% inhibition at 10 μM) | − (“−” indicates less than 50% inhibition at 10 μM) | A3: inhibition of radioligand binding ([10]; human MC3 membranes): + (“+” indicates greater than 50% inhibition at 10 μM); A8: inhibition of radioligand binding ([11]; human NK1 membranes): + (“+” indicates greater than 50% inhibition at 10 μM) |
| COC[C@H]1OC(OCCNC(=N)N)[C@H](NC(=O)c2ccccc2)[C@@H](OCc2ccc3ccccc3c2)[C@@H]1O (stereo partly shown) [compound 123] |  |  |  |  |  |  |  |  |  |  |  |  |  |  |  |  |  |  |  |  | A5 radioligand binding, percentage inhibition [1]: + (“+” indicates greater than 50% inhibition at 10 μM); A2 radioligand binding, percentage inhibition [2]: − (“−” indicates less than 50% inhibition at 10 μM); A10 radioligand binding, percentage inhibition [3]: − (“−” indicates less than 50% inhibition at 10 μM); A11 radioligand binding, percentage inhibition [4]: − (“−” indicates less than 50% inhibition at 10 μM); A4 radioligand binding, percentage inhibition [5]: − (“−” indicates less than 50% inhibition at 10 μM); A6 radioligand binding, percentage inhibition ([6]; [125I]-S36057): − (“−” indicates less than 50% inhibition at 10 μM); A9 radioligand binding, percentage inhibition [7]: − (“−” indicates less than 50% inhibition at 10 μM); A7 radioligand binding, percentage inhibition [8]: − (“−” indicates less than 50% inhibition at 10 μM); A1 radioligand binding, percentage inhibition [9]: − (“−” indicates less than 50% inhibition at 10 μM); A3 radioligand binding, percentage inhibition [10]: − (“−” indicates less than 50% inhibition at 10 μM); A8 radioligand binding, percentage inhibition [11]: + (“+” indicates greater than 50% inhibition at 10 μM) |
